The record followed here is patent US20260000624A1, “IONIZABLE LIPID CONTAINING BIODEGRADABLE DISULFIDE BOND AND LIPID NANOPARTICLES COMPRISING SAME” (ST PHARM CO., LTD., priority 2022, published 2026).

One assay concerns hepatocytes (HeLa). The experiment in a line: GFP mRNA delivery, fluorescence intensity of lysed cells. The settings on record: GFP mRNA LNP 0.1 μg/well, 24 hours, FIG. 4. Type of assay: cell-based. As to the method: The test was conducted by delivering GFP mRNA molecules into hepatocytes (HeLa) using each lipid nanoparticle synthesized with various amine headgroups (Compound 1 to Compound 5, Compound 11, and Compound 12). The expression of the gene was confirmed by measuring the […] intensity.
Specifically, lipid nanoparticles encapsulated with 100 ng GFP mRNA (SEQ ID NO: 6) at a concentration of 0.1 μg/well (based on mRNA concentration) were treated into the hepatocyte line (Nexel, Korea) seeded in 96-well plate at 1×10^5 cells/well. After 24 hours, the cells were treated with 100 μl/well of cell lysis buffer (Thermofischer, US) and left at room temperature for 10 minutes, and then the fluorescence intensity of the lysed cells was measured using an Infinite M200 plate reader (Tecan, USA) (FIG. 4).

Assay [1] concerns HeLa cells (HeLa-Luc) expressing luciferase. Description: Luc siRNA delivery, luminescence intensity in luciferase-expressing HeLa cells. Type of assay: cell-based. The settings on record: Luc siRNA LNP 5 nM/well, 24 hours, FIG. 3. As for the experimental part:
The test was conducted by delivering siRNA molecules, which inhibit the expression of luciferase enzyme, into engineered HeLa cells (HeLa-Luc) expressing luciferase using each lipid nanoparticle synthesized with various amine headgroups (Compound 1 to Compound 5, Compound 11, and Compound 12). The expression of the gene was confirmed by measuring the luminescence intensity.
Specifically, lipid nanoparticles encapsulated with Luc siRNAs (SEQ ID NOs: 4 and 5) at a concentration of 5 nM/well (based on siRNA concentration) were treated into the Hella cell line (Nexel, Korea) seeded in 96-well plate at […]. After 24 hours, the cells were treated with 100 μl/well of Bright-Glo™ luciferase assay solution (promega, USA) and left at room temperature for 10 minutes, and then the luminescence intensity of the lysed cells was measured using an Infinite M200 plate reader (Tecan, USA) (FIG. 3).

The subject of assay [2] is C57BL/6 mice. Description: Luc mRNA delivery via intravenous injection, bioluminescence by IVIS. The class given is in vivo. The settings on record: 0.1 mg/kg Luc mRNA, 3 hours, SM-102 control, FIG. 7. As to the method: To investigate the mRNA delivery of the 221-SS lipid nanoparticles, luciferase mRNA was delivered into mice, and gene expression was confirmed by bioluminescence.
Specifically, 221-SS 3 tail lipid nanoparticles encapsulated with Luc mRNA (SEQ ID NO: 1) were manufactured by the method of Example 2-3 above. The prepared lipid nanoparticles were injected intravenously into 7-week-old C57BL/6 mice at a dose of 0.1 mg/kg (based on mRNA), and 3 hours later, luciferin 0.25 mg/kg was administered intraperitoneally and bioluminescence was confirmed by IVIS (PerkinElmer, USA).
Next, in order to confirm the effect of the number of disulfide bond chains (tails), an in vivo assay using lipid nanoparticles encapsulated with 2 μg (0.1 mg/kg) of Luc mRNA (SEQ ID NO: 1) containing either 221-SS 3-tail (Compound 5) or 221-SS 4-tail (Compound 6) was performed via intravenous injection. The same experiment was also performed using lipid nanoparticles manufactured from a 1:1 mixture of 221-SS 3 chain and 221-SS 4 chain, wherein SM-102, FDA-approved ionizable lipid, was used as a control group.
Specifically, the respective lipid nanoparticles were injected intravenously into 7-week-old C57BL/6 mice at a dose of 0.1 mg/kg (based on mRNA), and 3 hours later, luciferin 0.25 mg/kg was administered intraperitoneally and bioluminescence was confirmed by IVIS (PerkinElmer, USA).

Assay [3] deals with C57BL/6 mice. Description: Luc mRNA delivery via intramuscular injection, bioluminescence by IVIS. Type of assay: in vivo. The following applies: 0.1 mg/kg Luc mRNA, 3 hours, SM-102 control, FIG. 9. As to the method: Luc mRNA (SEQ ID NO: 1) was delivered to mice by intramuscular injection, and gene expression was confirmed by bioluminescence.
Specifically, lipid nanoparticles (221-SS 3 tail, 221-SS 4 tail alone and mixed) containing Luc mRNA were manufactured, as described above, followed by intramuscular injection into C57BL/6 mice at a concentration of 0.1 mg/kg (based on mRNA). After 3 hours, luciferin 0.25 mg/kg was administered intraperitoneally and bioluminescence was confirmed by IVIS (PerkinElmer, USA).

Regarding `CCCCCCCCCCCCSSCCN(CCSSCCCCCCCCCCCC)CCN(C)C` [Compound 1], the “fluorescence intensity (GFP mRNA delivery)” value with hepatocytes (HeLa) is on record as “higher efficiency”. Moreover, the “luminescence intensity (Luc siRNA delivery)” value in assay [1] is “higher efficiency”.
For `CCCCCCCCCCCCSSCCNCCCN(C)CCCN(CCSSCCCCCCCCCCCC)CCSSCCCCCCCCCCCC` [Compound 5], the “bioluminescence according to number of chains” value was “better effects than the negative control” in the assay with C57BL/6 mice [2] and “superior to the negative control” with C57BL/6 mice [3]. For the same molecule, the “fluorescence intensity (GFP mRNA delivery)” value with hepatocytes (HeLa) is recorded as “higher efficiency”. Moreover, the “luminescence intensity (Luc siRNA delivery)” value in assay [1] is given as “higher efficiency”.
With `CCCCCCCCCCCCSSCCN(CCCN(C)CCCN(CCSSCCCCCCCCCCCC)CCSSCCCCCCCCCCCC)CCSSCCCCCCCCCCCC` [Compound 6], the “bioluminescence according to number of chains” value is recorded as “better effects than the negative control” in the assay on C57BL/6 mice [2] and “superior to the negative control” in the assay with C57BL/6 mice [3].
